The test has as its system P388 leukemia ip, CD2F1 mice, survival T/C. Kind of test: NCI In Vivo Anticancer Drug Screen. Data for tumor model P388 Leukemia (intraperitoneal) in CD2F1 (CDF1) mice. The settings on record: endpoint: median survival time, higher = longer survival. The method, boiled down: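 Mice carrying the transplanted tumor received test compound or vehicle. Survival was recorded in each group, and the value is the treated-group measurement divided by that of the vehicle-treated control group.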

Setting [1] is: dose: 25.0 mg/kg/injection, schedule: Q01DX009 (ip), vehicle: saline.
Where [2] appears, read: dose: 50.0 mg/kg/injection, schedule: Q01DX009 (ip), vehicle: saline.
The mark [3] stands for this setting: dose: 100.0 mg/kg/injection, schedule: Q01DX009 (ip), vehicle: saline.
[4] abbreviates: dose: 200.0 mg/kg/injection, schedule: Q01DX009 (ip), vehicle: saline.
[5] abbreviates: dose: 50.0 mg/kg/injection, schedule: Q01DX009 (ip), vehicle: saline with Tween-80.
Setting [6] is: dose: 100.0 mg/kg/injection, schedule: Q01DX009 (ip), vehicle: saline with Tween-80.

“And” between values parts separate entries of the source, which are not always exact repeats. Identical values can stand only once. Inconclusive results and toxic doses are left out.

As to `CC1=C(C)CP(=O)(c2ccccc2)C1`, the T/C is, setting by setting: under setting [1], 96 % of control; under setting [2], 93 % of control; under setting [3], 95 % of control; under setting [4], 95 % of control.

With `CCOc1ccc(N=c2ccn3ccccc3c2)cc1`, the T/C reads like this: (dose: 6.25 mg/kg/injection, schedule: Q01DX009 (ip), vehicle: saline with Tween-80) 102 % of control; (dose: 12.5 mg/kg/injection, schedule: Q01DX009 (ip), vehicle: saline with Tween-80) 110 % of control; (dose: 25.0 mg/kg/injection, schedule: Q01DX009 (ip), vehicle: saline with Tween-80) 111 % of control.

Consider `COC1/C=C/C=C(/C)Cc2cc(O)c(Cl)c(c2)N(C)C(=O)CC(OC(=O)C(C)C)C2(C)OC2C(C)C2CC1(O)NC(=O)O2` (centres undefined), for which the T/C (dose: 50.0 micrograms/kg/injection, schedule: Q01DX009 (ip), vehicle: saline + alcohol) was 153 % of control; the T/C (dose: 100.0 micrograms/kg/injection, schedule: Q01DX009 (ip), vehicle: saline + alcohol) is 177 % of control and 190 % of control; the T/C (dose: 200.0 micrograms/kg/injection, schedule: Q01DX009 (ip), vehicle: saline + alcohol) was 185 % of control and 221 % of control; the T/C (dose: 400.0 micrograms/kg/injection, schedule: Q01DX009 (ip), vehicle: saline + alcohol) was 177 % of control and 230 % of control; the T/C (dose: 800.0 micrograms/kg/injection, schedule: Q01DX009 (ip), vehicle: saline + alcohol) is 192 % of control and 205 % of control; the T/C (dose: 1000.0 micrograms/kg/injection, schedule: Q01DX009 (ip), vehicle: saline + alcohol) was 182 % of control.

As for `Cc1cc([N+](=O)[O-])c(S(N)(=O)=O)c([N+](=O)[O-])c1`, the T/C runs as follows: (dose: 3.13 mg/kg/injection, schedule: Q01DX009 (ip), vehicle: water) 96 % of control; (dose: 6.25 mg/kg/injection, schedule: Q01DX009 (ip), vehicle: water) 96 % of control; (dose: 12.5 mg/kg/injection, schedule: Q01DX009 (ip), vehicle: water) 99 % of control; (dose: 25.0 mg/kg/injection, schedule: Q01DX009 (ip), vehicle: water) 97 % of control; (dose: 50.0 mg/kg/injection, schedule: Q01DX009 (ip), vehicle: water) 98 % of control.

For `CCCCCCCCCCCCCCCCCCCCN1CCOCC1`, the T/C was 102 % of control (dose: 12.5 mg/kg/injection, schedule: Q01DX009 (ip), vehicle: saline); 107 % of control under setting [1]; 92 % of control under setting [5]; 101 % of control and 97 % of control under setting [2]; 90 % of control under setting [6]; 100 % of control under setting [3]. Under setting [4], the T/C was 90 % of control.

For `CC1(C)COCN1CN1COCC1(C)C`, the T/C is, setting by setting: (dose: 0.78 mg/kg/injection, schedule: Q04DX003 (ip), vehicle: saline) 100 % of control; (dose: 1.56 mg/kg/injection, schedule: Q04DX003 (ip), vehicle: saline) 101 % of control; (dose: 3.13 mg/kg/injection, schedule: Q04DX003 (ip), vehicle: saline) 100 % of control; (dose: 12.5 mg/kg/injection, schedule: Q04DX003 (ip), vehicle: saline) 111 % of control; (dose: 25.0 mg/kg/injection, schedule: Q04DX003 (ip), vehicle: saline) 102 % of control; (dose: 50.0 mg/kg/injection, schedule: Q04DX003 (ip), vehicle: saline) 120 % of control. Further, the T/C is, setting by setting: (dose: 100.0 mg/kg/injection, schedule: Q04DX003 (ip), vehicle: saline) 123 % of control; (dose: 200.0 mg/kg/injection, schedule: Q04DX003 (ip), vehicle: saline) 107 % of control.

Regarding `O=C(NC1CCCCC1)C(=O)c1cc(Cl)c(Cl)c(Cl)c1Cl`, the T/C is 106 % of control under setting [5]; 114 % of control under setting [6]; 103 % of control (dose: 200.0 mg/kg/injection, schedule: Q01DX009 (ip), vehicle: saline with Tween-80).

Take `CC1CCCC2CCCOCN12` (centres undefined): the T/C (dose: 12.5 mg/kg/injection, schedule: Q01DX005 (ip), vehicle: Klucel (hydroxypropylcellulose) (HPC)) was 107 % of control; the T/C (dose: 12.5 mg/kg/injection, schedule: Q01DX005 (ip), vehicle: saline) is 103 % of control; the T/C (dose: 25.0 mg/kg/injection, schedule: Q01DX005 (ip), vehicle: Klucel (hydroxypropylcellulose) (HPC)) is 106 % of control; the T/C (dose: 25.0 mg/kg/injection, schedule: Q01DX005 (ip), vehicle: saline) was 99 % of control; the T/C (dose: 50.0 mg/kg/injection, schedule: Q01DX005 (ip), vehicle: Klucel (hydroxypropylcellulose) (HPC)) was 104 % of control; the T/C (dose: 50.0 mg/kg/injection, schedule: Q01DX005 (ip), vehicle: saline) is 100 % of control and 104 % of control. The T/C is 101 % of control (dose: 100.0 mg/kg/injection, schedule: Q01DX005 (ip), vehicle: Klucel (hydroxypropylcellulose) (HPC)); 122 % of control and 98 % of control (dose: 100.0 mg/kg/injection, schedule: Q01DX005 (ip), vehicle: saline).

With `O=[N+]([O-])c1ccc(/C=C(/c2ccc([N+](=O)[O-])o2)S(=O)(=O)c2ccccc2)cc1`, the T/C (dose: 50.0 mg/kg/injection, schedule: Q01DX009 (ip), vehicle: suspension in saline) is 97 % of control; the T/C (dose: 100.0 mg/kg/injection, schedule: Q01DX009 (ip), vehicle: suspension in saline) is 103 % of control; the T/C (dose: 200.0 mg/kg/injection, schedule: Q01DX009 (ip), vehicle: suspension in saline) was 97 % of control.

Consider `N#CCCNNc1ccccc1`, for which the T/C was 100 % of control (dose: 50.0 mg/kg/injection, schedule: Q01DX001 (ip), vehicle: saline); 106 % of control (dose: 100.0 mg/kg/injection, schedule: Q01DX001 (ip), vehicle: saline); 97 % of control (dose: 200.0 mg/kg/injection, schedule: Q01DX001 (ip), vehicle: saline).

With `CC1CC12OC(=O)N(c1cc(Cl)cc(Cl)c1)C2=O` (centres undefined), the T/C by setting is: (dose: 50.0 mg/kg/injection, schedule: Q01DX005 (ip), vehicle: saline + Tween-80 + alcohol) 98 % of control; (dose: 100.0 mg/kg/injection, schedule: Q01DX005 (ip), vehicle: saline + Tween-80 + alcohol) 100 % of control; (dose: 200.0 mg/kg/injection, schedule: Q01DX005 (ip), vehicle: saline + Tween-80 + alcohol) 101 % of control.

Turning to `CCCNC(=O)c1ccccc1C(=O)NC1(C(=O)NCCC)CCCC1`, the T/C runs as follows: (dose: 50.0 mg/kg/injection, schedule: Q01DX005 (ip), vehicle: saline with Tween-80) 97 % of control; (dose: 100.0 mg/kg/injection, schedule: Q01DX005 (ip), vehicle: saline with Tween-80) 96 % of control; (dose: 200.0 mg/kg/injection, schedule: Q01DX005 (ip), vehicle: saline with Tween-80) 96 % of control.

In the case of `C=C(C)C12CC(C)C34OC(CCCCCCCCCCC)(OC1C3C1OC1(CO)C(O)C1(O)C(=O)C(C)=CC14C)O2` (centres undefined), the T/C runs as follows: (dose: 0.05 mg/kg/injection, schedule: Q01DX009 (ip), vehicle: distilled water + Tween-80) 99 % of control and 100 % of control; (dose: 0.06 mg/kg/injection, schedule: Q01DX009 (ip), vehicle: other) 100 % of control; (dose: 0.1 mg/kg/injection, schedule: Q01DX009 (ip), vehicle: distilled water + Tween-80) 100 % of control and 96 % of control; (dose: 0.12 mg/kg/injection, schedule: Q01DX009 (ip), vehicle: other) 104 % of control; (dose: 0.2 mg/kg/injection, schedule: Q01DX009 (ip), vehicle: distilled water + Tween-80) 103 % of control and 96 % of control; (dose: 0.4 mg/kg/injection, schedule: Q01DX009 (ip), vehicle: distilled water + Tween-80) 105 % of control and 119 % of control. The T/C (dose: 25.0 micrograms/kg/injection, schedule: Q01DX009 (ip), vehicle: other) is 112 % of control and the T/C (dose: 50.0 micrograms/kg/injection, schedule: Q01DX009 (ip), vehicle: other) is 112 % of control.

For the compound `CCOC(=O)C1(C)Sc2ccccc2N=C1c1ccccc1` (centres undefined), the T/C (dose: 60.0 mg/kg/injection, schedule: Q01DX005 (ip), vehicle: saline + Tween-80 + alcohol) is 98 % of control; the T/C (dose: 120.0 mg/kg/injection, schedule: Q01DX005 (ip), vehicle: saline + Tween-80 + alcohol) is 93 % of control; the T/C (dose: 240.0 mg/kg/injection, schedule: Q01DX005 (ip), vehicle: saline + Tween-80 + alcohol) is 89 % of control.

On to `CCCCCCCCCCCCCCCCCCSC1=CC(=O)C(Cl)=C(Cl)C1=O`, for which the T/C (dose: 10.0 mg/kg/injection, schedule: Q01DX009 (ip), vehicle: Klucel (hydroxypropylcellulose) (HPC)) is 97 % of control and the T/C (dose: 20.0 mg/kg/injection, schedule: Q01DX009 (ip), vehicle: Klucel (hydroxypropylcellulose) (HPC)) is 90 % of control.

Values taken from PubChem BioAssay AID330 (DTP/NCI, 2004).
